Results: patent US20030225152A1, “3-(Arylamino)methylene-1, 3-dihydro-2h-indol-2-ones as kinase inhibitors” (priority 2001, published 2003)

How the values were obtained:
[1] = target: T1, cytoplasmic domain of the human VEGF receptor (VEGFR-2) (Homo sapiens, UniProt P35968); experiment: KDR Assay; format: biochemical; conditions: His-VEGFR-2; 3.6 μM ATP
T1 construct: The cytoplasmic domain of the human VEGF receptor (VEGFR-2) was expressed as a Histidine-tagged fusion protein; Histidine tag
Summary of the method: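 His-tagged human VEGFR-2 cytoplasmic domain from baculovirus-infected insect cells, acting on poly-Glu-Tyr (4:1)-coated plates with 3.6 μM ATP in Hepes pH 7.4 with MgCl2/MnCl2 and 5% final DMSO, 10 min at 25 °C. Phosphotyrosine detected by peroxidase-conjugated antibody ELISA at 492 nm; IC50 from blank-subtracted OD versus concentration.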

[2] = test system: Laser-induced Choroidal Neovascularization (CNV); experiment: Laser-induced Choroidal Neovascularization (CNV) in Rat (CNV Assay); format: in vivo
Experimental: Laser-induced Choroidal Neovascularization (CNV) in Rat (CNV Assay). CNV was induced and quantified in this model as previously described (Edelman and Castro. Exp. Eye Res. 2000; 71:523-533). On day 0, male Brown Norway rats (200-300 g) were anesthetized with 100 mg/kg Ketamine and 10 mg/kg Xylazine, and pupils were dilated with 1% Tropicamide. Using the blue-green setting of a Coherent Novus Argon Laser, 3 laser bums (90 mW for 0.1 s; 100 μm diameter) were given to each eye between the retinal vessels around the optic nerve head. […]
On day 10, rats were sacrificed with 100% CO2, and blood vessels were labeled by vascular perfusion with 10 mg/ml FITC-dextran (MW 2×10^6). Using an epifluorescence microscope (20×) coupled to a spot digital camera and a PC, images were obtained from the flat mounts of the RPE-choroid-sclera from each eye, and the area occupied by hyperfluorescent neovessels within each laser lesion was measured using ImagePro 4 software.
(§1) To determine the dose required for 50% inhibition (ID50), the percent inhibition data was plotted as a function of oral dose, using the ‘best-fit’ analysis within MicroSoft Excel software. The ID50 value was verified visually by using the plotted data (horizontal line from 50% y value, at intersection with best-fit line drop vertical line to x axis (dose)).

[3] = test system: VEGF-induced EBD extravasation; experiment: VEGF-induced Dermal Extravasation in Guinea Pig (Miles Assay); format: in vivo
Experimental: VEGF-induced Dermal Extravasation in Guinea Pig (Miles Assay). Male Hartley guinea pigs (300-600 g) were anesthetized with isofluorane, sheared, and given a single dose of drug or the respective vehicle. The guinea pigs were dosed orally unless indicated otherwise in Table 3. Ten minutes prior to the end of drug treatment, guinea pigs were anesthetized with isofluorane, and 0.5% Evans blue dye (EBD) in PBS (13-15 mg/kg dose of EBD) was injected intravenously. After 5 minutes, triplicate intradermal injections of 100 ng rhVEGF165 in 100 μl PBS and of 100 μl PBS alone were administered on the flank. After 20 minutes, each animal was euthanized with Pentosol, and the skin containing the intradermal injection sites was removed for image analysis.
Using an analog video camera coupled to a PC, an image of each trans-illuminated skin sample was captured, and the integrated optical density of each injection site was measured using ImagePro 4. For each skin sample, the difference between the mean optical density of the VEGF sites and mean optical density of the PBS sites is the measure of VEGF-induced EBD extravasation in that animal. These measured values were averaged per study group to determine the mean VEGF-induced EBD extravasation for each experimental condition, and the group means were then compared to assess inhibition of VEGF-induced EBD extravasation in the drug-treated groups relative to the vehicle-treated controls.
as §1

[4] = test system: VEGF induced increases in intracellular calcium levels in HUVEC (human umbilical vein endothelial cells); experiment: VEGF Stimulated Ca++ Signal in vitro (FLIPR); format: cell-based; conditions: VEGF 5 ng/mL; for IC50: 0.01 to 10.0 μM
Summary of the method: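 HUVEC loaded with Fluo-4 (45 min, 37° C.), washed, then pre-incubated 30 min with compound (10 μM single dose or 0.01–10.0 μM; 0.1% DMSO) before 5 ng/mL VEGF. Fluorescence at 516 nm read by FLIPR; IC50 from % inhibition of max-min VEGF response.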

T1 sequence (P35968 786-1356): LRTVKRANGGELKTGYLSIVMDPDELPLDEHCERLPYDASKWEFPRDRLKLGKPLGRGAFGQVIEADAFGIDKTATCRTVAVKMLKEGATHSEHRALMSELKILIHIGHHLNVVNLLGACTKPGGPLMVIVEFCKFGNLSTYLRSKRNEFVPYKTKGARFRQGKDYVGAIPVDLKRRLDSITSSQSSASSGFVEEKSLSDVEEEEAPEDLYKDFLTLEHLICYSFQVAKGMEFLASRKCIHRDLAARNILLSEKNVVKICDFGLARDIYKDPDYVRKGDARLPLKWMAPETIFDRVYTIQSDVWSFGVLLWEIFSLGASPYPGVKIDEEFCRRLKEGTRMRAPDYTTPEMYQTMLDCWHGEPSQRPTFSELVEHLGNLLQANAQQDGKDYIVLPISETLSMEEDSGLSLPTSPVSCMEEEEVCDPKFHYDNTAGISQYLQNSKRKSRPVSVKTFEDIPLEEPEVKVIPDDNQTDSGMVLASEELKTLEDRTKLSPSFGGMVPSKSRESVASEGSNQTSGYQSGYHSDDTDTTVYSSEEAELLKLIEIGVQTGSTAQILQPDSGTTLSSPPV

Row | Structure (SMILES) | IC50 [1] [nM] | Miles Assay % inhibition ([3]; 75 mg/kg, PEG400, oral) [%] | Miles Assay % inhibition ([3]; 75 mg/kg, corn oil, oral) [%] | inhibition at 10 µM ([4]; Homo sapiens) [%] | CNV Assay % inhibition ([2]; 80 mg/kg (sid), corn oil, oral) [%] | further results
1 | O=C1Nc2ccccc2C1=CNc1ccc(N2CCOCC2)cc1 [Example 40] | 250 | 100 | 47 | 96.7 |  | CNV Assay % inhibition ([2]; 20 mg/kg (bid), PEG400, oral): 95%; CNV Assay % inhibition ([2]; 20 mg/kg (sid), PEG400, oral): 54%; CNV Assay % inhibition ([2]; 40 mg/kg (sid), PEG400, oral): 96%; CNV Assay % inhibition ([2]; 50 mg/kg (bid), corn oil, oral): 92%; CNV Assay % inhibition (toxicity noted) ([2]; 100 mg/kg (sid), PEG400, oral): toxic; CNV Assay % inhibition ([2]; 100 mg/kg (sid), corn oil, oral): 74%; CNV Assay ID50 (mg/kg) ([2]; oral dose for 50% inhibition): ˜20 mg/kg; Miles Assay % inhibition ([3]; 1 mg/kg, I.V. bolus in 20% methyl cyclodextrin, preincubation period 0.5 h): 0%; Miles Assay % inhibition ([3]; 1 mg/kg, I.V. bolus in 20% methyl cyclodextrin, preincubation period 1 h): 0%; Miles Assay % inhibition ([3]; 1 mg/kg, I.V. bolus in 20% methyl cyclodextrin, preincubation period 2 h): 0%; Miles Assay % inhibition ([3]; 10 mg/kg, 43% methyl cyclodextrin, preincubation period 1 h): 6%; Miles Assay % inhibition ([3]; 75 mg/kg, homogenized corn oil, oral): 40%; Miles Assay % inhibition ([3]; 75 mg/kg, micronized corn oil, oral): 52%; Miles Assay ID50 ([3]; oral dose for 50% inhibition): 18 mg/kg
2 | CC1CN(c2ccc(NC=C3C(=O)Nc4ccccc43)cc2)CC(C)O1 (centres unmarked) [Example 159, 3-{[4-(2,6-Dimethyl-morpholin-4-yl)-phenylamino]-methylene}-1,3-dihydro-indol-2-one] | 350 | 91 |  | 97.4 |  | CNV Assay % inhibition ([2]; 100 mg/kg (sid), 10% DMAC, 10% NMP, 80% PEG400, oral): 41%; IC50 [4]: 580 nM; IC50 ([4]; Homo sapiens): ≤ 1000 nM
3 | O=C1Nc2ccccc2C1=CNc1ccc(OCCCCN2CCCCC2)cc1 [Example 209, 3-{[4-(4-Piperidin-1-yl-butoxy)-phenylamino]-methylene}-1,3-dihydro-indol-2-one] | 240 | 79 | 84 | 98.6 | 95 | 
4 | O=C1Nc2ccccc2C1=CNc1ccc(OCCCN2CCCCC2)cc1 [Example 218, 3-{[4-(3-Piperidin-1-yl-propoxy)-phenylamino]-methylene}-1,3-dihydro-indol-2-one] | 170 | 99 | 97 | 98.1 | 99 | CNV Assay % inhibition ([2]; 9.3 mg/kg (sid), corn oil, oral): 33%; CNV Assay % inhibition ([2]; 38.5 mg/kg (sid), corn oil, oral): 68%; CNV Assay ID50 ([2]; oral dose for 50% inhibition): 17 mg/kg
5 | CCN(CC)CCCOc1ccc(NC=C2C(=O)Nc3cccc(C)c32)cc1 [Example 231, 3-{[4-(3-Diethylamino-propoxy)-phenylamino]-methylene}-4-methyl-1,3-dihydro-indol-2-one] | 70 |  | 93 | 93.3 | 85 | 
6 | CCN(CC)CCCOc1ccc(NC=C2C(=O)Nc3cc(F)ccc32)cc1 [Example 234, 3-{[4-(3-Diethylamino-propoxy)-phenylamino]-methylene}-6-fluoro-1,3-dihydro-indol-2-one] | 110 |  | 95 | 96.1 | 97 | CNV Assay % inhibition ([2]; 8.6 mg/kg (sid), corn oil, oral): 18%; CNV Assay % inhibition ([2]; 35 mg/kg (sid), corn oil, oral): 76%; CNV Assay ID50 ([2]; oral dose for 50% inhibition): 19 mg/kg
7 | O=C1Nc2ccccc2C1=CNc1ccc(NCCN2CCOCC2)cc1 [Example 235, 3-{[4-(2-Morpholin-4-yl-ethylamino)-phenylamino]-methylene}-1,3-dihydro-indol-2-one] | 240 |  | 99 | 98.2 |  | CNV Assay % inhibition ([2]; 40 mg/kg (sid), corn oil, oral): 63%
8 | O=C1Nc2cc(F)ccc2C1=CNc1ccc(OCCCN2CCCCC2)cc1 [Example 239, 6-Fluoro-3-{[4-(3-piperidin-1-yl-propoxy)-phenylamino]-methylene}-1,3-dihydro-indol-2-one] | 150 |  | 100 | 97.7 |  | CNV Assay % inhibition ([2]; 40 mg/kg (sid), corn oil, oral): 56%
